melting point [°C] | SMILES
99 to 101 | c1ccc(CCCCNCCOc2cccc3[nH]ccc23)cc1
110 to 112 | O=S(=O)(c1ccccc1)C(CCCCl)c1ccccc1 (stereo not given)
264 to 266 | O=C1Nc2cccc(Cl)c2C(=O)N2CCC[C@@H]12
165 to 167 | Fc1ccc2c(c1)N=C(N1CCNCC1)c1sccc1N2
105 to 108 | Cc1cc(C)nc(NC(=O)N(C)C)c1
160 to 161 | Nc1ccccc1C(=O)Nc1ccc(C(F)(F)F)cc1
299 to 300 | Cn1c(=O)n(C)c2cc3c(N4CCN(C(=O)Nc5ccc([N+](=O)[O-])cc5)CC4)ncnc3cc21
60 to 61 | CCOC(=O)Nn1cccc1
137 to 139 | Cc1cc(C)c2ncc(Br)n2n1
225 to 226 | CN(c1ccc(Cl)c2cc(-c3ncc(CO)s3)[nH]c12)S(=O)(=O)c1cccs1
143 | CC(C)(C)OC(=O)N1CCOc2ccc(O)cc2S1(=O)=O
216 | Cc1cccc(NC(=O)NCC(=O)N(c2ccccc2)c2ccccc2CC(=O)NC(C)(C)C)c1
115 to 117 | CNc1cc(Oc2nn(C)c(C(F)(F)F)c2Cl)ccc1C#N
364 to 367 | O=C1CC(c2cccc(O)c2)=Nc2ccc(N3CCCC3)cc21
> 285 | Cc1cc(=O)oc2cc(NC(=O)C3C(=O)c4ccccc4S(=O)(=O)N3C)ccc12 (stereo not given)
191 to 192 | O=S1(=O)NCN(C2CCCCCC2)c2cc(Cl)c(Cl)cc21
220 to 222 | CC(C)(C)OCc1cccc(-c2ccc3nc(-c4cccnc4)cn3c2)c1
> 250 | CN1CCN(c2ccc(-c3nc(C(=O)Nc4nccs4)c(-c4ccc(Cl)cc4)[nH]3)cc2)CC1
140 to 160 | Cc1cccc(C(N)=O)c1Nc1nc(Nc2ccc3c(c2)N(C(C)C)C(=O)CCC3)ncc1Cl
292 to 294 | CCCCn1c(=O)c2c(NC)n[nH]c2n(Cc2ccc(OC)cc2)c1=O
220 to 221 | NS(=O)(=O)c1ccc(CCN2CC=C(c3c[nH]c(-c4ccc(F)cc4)c3-c3ccncc3)CC2)cc1
276 | COc1ccc(C2CCCCC2)cc1-c1csc(NC(=O)N2CCN(C(=O)C3CCOCC3)CC2)n1

melting point [°C] | SMILES
179 to 180 | Cc1c(Cc2ccc(C(C)C)cc2)c2c(c(C)c1NC(=O)CC(C)(C)C)CC(C)O2 (stereo not given)
220 | COc1ccc(C(=O)NN=C(N)N)c(F)c1
135 to 137 | CSc1ccc(-c2cnn(-c3ccc(F)cc3)c(=O)c2OC(C)C)cc1
118 to 119 | OC(CCCc1ccccc1)c1ccc(OCc2ccc3ccccc3n2)cc1 (stereo not given)
148 to 150 | O=[N+]([O-])c1cccc(-c2ccnc3c(-c4ccsc4)cnn23)c1
183 | NC(=O)c1nccn1C1Cc2ccccc2C1=O (stereo not given)
184 | O=S1(=O)c2cccc3cccc(c23)N1CCN1CCC(Cc2c[nH]c3ccccc23)CC1
135 to 137 | Cc1cc(C(=O)N(O)C2CCCCC2)c(C)o1
146 to 148 | CCN1C(=O)C(C)(C)C(=O)N(C)c2cc(CN(CCn3ccc4oc(C)cc4c3=O)Cc3cncnc3)ccc21
130 to 132 | O=C(N(Cc1ccccc1)Cc1cccs1)C12CC3CC(CC(C3)C1)C2
136 to 142 | COC(=O)c1sc2c(c1N)-c1ccccc1CN2c1ccccc1
121 to 122 | CCCCOc1c(CNC(=O)OC(C)(C)C)n(CC(C)(C)C)c(=O)c2ccc(/C=C/C(N)=O)cc12
136 to 138 | COC(=NC(=O)c1ccc(F)cc1)N1Cc2ccccc2-c2ccccc2C1
229 to 231 | O=C(O)CCCCCNC(=O)CCC(=O)Nc1cccc2ccccc12
32 to 32.8 | C=CC(=O)OCC=C(C)CCC=C(C)CCC=C(C)CCC=C(C)CCC=C(C)CCC=C(C)CCC=C(C)CCC=C(C)CCC=C(C)CCC=C(C)C
114 to 115 | CCOC(=O)C1CN(C(=O)c2cc(OC)c(OC)c(OC)c2)CCN1 (stereo not given)
112 to 113 | C#CCOc1ccc2c(c1)c(-c1ccc(C3CC3)cc1)nc(=O)n2Cc1ccccc1
77 to 80 | CCC(Cc1ccccc1)(C(=O)c1ccc(N(C)C)cc1)N(C)C (stereo not given)
208 | O=C(NC(=O)c1ccc(F)cc1Cl)Nc1ccc(Cl)c(Cl)c1
52 to 56 | CC(C)(C)OC(=O)N1[C@@H](CC2CCCCC2)[C@H](c2ccco2)OC1(C)C
228 to 230 | N#Cc1ccc(Nc2nnc(Cc3ccncc3)c3ccccc23)cc1
144 to 146 | CCCc1ccc(Oc2ccc3c(c2)OC(C(F)(F)F)C(C(=O)O)=C3)cc1 (stereo not given)

melting point [°C] | SMILES
220 | CC12CCC(C(=O)O)=CC1=CCC1C2CCC2(C)C(C(=O)CCc3ccc(F)cc3)CCC12 (stereo not given)
144 to 145 | Nc1cccc(CN2CCN(C(c3ccccc3)c3ccccc3)CC2)n1
128 to 130 | O=C(NCCCc1ccncc1)N(CCC12CC3CC(CC(C3)C1)C2)Cc1ccco1
97.6 | N#Cc1ccc(C[C@]23C[C@@H](O)CN2C(=O)N(c2cc(Cl)nc(Cl)c2)C3=O)cc1
110 to 112 | COc1ccc(C(=O)Cc2c(Cl)cncc2Cl)c2c1OC1(CCCC1)O2
56 to 57 | Cc1nn(C)c(Oc2ccccn2)c1C=O
144 to 146 | CCOC(=O)C(C(=O)OCC)C1c2ccccc2C(F)(F)C(F)(F)c2ccccc21
115 to 116 | COC(=O)C1=C(C)NC(C)=C(C(=O)OCCN2CC=C(c3ccccc3)CC2)C1c1cccc([N+](=O)[O-])c1 (stereo not given)
85 to 86.7 | CCOC(=O)c1ccc(-c2c(F)ccc([N+](=O)[O-])c2F)cc1
119 to 121 | CC(C)(C)OC(=O)N1CCC(O)(Cc2ccc3ccccc3n2)CC1
166 | CC(C)(C)c1cc(CCc2ccccc2NC(=O)NCCCC2CCCCC2)cc(C(C)(C)C)c1O
181 to 182 | CN(c1cccc2cc(-c3ncc(CN4CCOCC4)s3)[nH]c12)S(=O)(=O)c1cccs1
162 to 163 | CC(C)(C)[Si](C)(C)O[C@@H]1c2cc(Br)ccc2-c2ccc(Br)cc2[C@H]1O[Si](C)(C)C(C)(C)C (relative stereo)
247 to 249 | O=C1NC(O)C2=C1CN=C(c1ccccc1Cl)c1cc(Cl)ccc12 (stereo not given)
136 to 138 | COCC1CN(c2ccc(C3CCN(C(=O)C=Cc4ccccc4)CC3)cc2)C(=O)O1 (racemic)
136 | CN1CCC(C(=O)OC2c3ccccc3C(=O)N2c2ccc3ccc(Cl)nc3n2)CC1 (stereo not given)
217 to 224 | CC1Oc2c(cc(CN3CCN(c4ccc(C(=O)NC5CC5)cc4)CC3)cc2-c2ccccc2)NC1=O (stereo not given)
130 to 132 | CCCCCCCCC1C=CC(Oc2ccc(C(=O)O)o2)=C2N=C3CCCCC3=C21 (stereo not given)
198 to 199 | CCC(=O)Nc1c(C(=O)c2ncccc2CO)[nH]c2cc(Cl)ccc12
195 to 197 | NS(=O)(=O)c1ccc(-n2nc(NC(=O)Nc3cccc(C(F)(F)F)c3)cc2-c2ccccc2)cc1
75 to 78 | O=C(O)CCCCCCc1ccc(Cl)cc1
162 to 165 | CC(C)(CO)Cc1ccc2cc(CC(C)(C)CO)ccc2c1

melting point [°C] | SMILES
186 to 188 | Nc1nc2ccccc2c2c1ncn2CCOCCCc1ccccc1C(=O)O
125 to 129 | O[C@H]1CN(Cc2ccccc2)CC[C@@H]1c1ccc(Br)cc1 (racemic)
155 to 157 | CCCCCCCNC(=O)Nc1ccccc1C(=O)Nc1ccc(CCCCCCC)cc1
> 270 | Cn1ncc2c1CS(=O)c1cn[nH]c1-2 (stereo not given)
218 to 221 | CNCC(C(=O)O)c1ccc(O)cc1 (stereo not given)
245 to 247 | O=C(O)Cc1sc(S)nc1-c1ccc(Cl)cc1
220 to 225 | CC(C)c1cc2n(CCc3ccccc3)cc(C(=O)O)c(=O)n2n1
62 to 70 | COC(=O)c1ccc(OCCNC(=O)C2Cc3ccccc3N2S(=O)(=O)c2ccc(-c3ccc(F)cc3)cc2)cc1C(F)(F)F (stereo not given)
71 | C=CCc1cc(CC(=O)OC)ccc1OCc1ccc2ccccc2n1
224 to 227 | Cn1ncnc1-c1cc(S(C)=O)c2[nH]c(=O)ccc2c1 (stereo not given)
78 to 80 | CC(C)(C)OC(=O)N1CCC=C(Cc2c[nH]c3ccc(F)cc23)C1
120 to 124 | COC(=O)C(=O)NCC(C#Cc1ccccc1)c1ccc(OC)c(OC2CCCC2)c1 (racemic)
95 to 98 | O=C(CS(=O)Cc1cccs1)C12CC3CC(CC(C3)C1)C2 (stereo not given)
167 to 169 | CC(C)(C)OC(=O)[C@@H](Cc1ccccc1)NC(=O)C1CN(c2ccc(C(N)=S)cc2)C(=O)O1 (stereo not given in full)
133 to 138 | COc1ccc2c(c1F)OCc1c(C(F)(F)F)nn(-c3ccc(S(N)(=O)=O)cc3)c1-2
191 to 193 | CNC1=NS(=O)N=C1CCS (stereo not given)
188 to 190 | CC(Cc1ccc(OCc2cccc(C(N)=O)c2)cc1)NCCC(c1ccccc1)c1ccccc1 (stereo not given)
131 to 132 | O=C(CN1CCc2c([nH]c3ccccc23)C1c1ccccc1)OCc1ccccc1 (stereo not given)
228 to 231 | FC(F)(F)c1cccnc1N1CCN(c2nc3ccc(Cl)cc3[nH]2)CC1

SMILES | melting point [°C]
CCCCNC(=O)OC1c2cc(C(F)(F)F)ccc2C(=O)N1c1ccc2ccc(Cl)nc2n1 (stereo not given) | 120
COc1cccc2c1C13CCN(C(=O)C4CC4)C(C2)C1CCC(=O)C3 (stereo not given) | 144 to 147
Cc1nc2cc(NC(=O)c3cc4cccnc4n3Cc3ccncc3)ccc2s1 | 211 to 236
O=C1c2ccccc2C(=O)N1Cc1cnc2n1-c1ccc(Cl)cc1C(c1ccccc1Cl)=NC2 | 218 to 220
CCCN1CCC(=O)C(C(c2ccccc2)c2ccccc2)C1 (stereo not given) | 72 to 76
CN1CC[C@@H]2CC(=O)c3c(F)cc(F)cc3[C@@H]2C1 (relative stereo) | > 220
O=C(c1ccc(Cl)cc1)c1cc([N+](=O)[O-])ccc1N1CCC(Cc2ccccc2)CC1 | 211
COC12CC(CNC(=S)NC(C)=O)CN(C)C1Cc1c[nH]c3cccc2c13 (stereo not given) | 212 to 214
COc1cc(C)c(OC)c(C=C(C)[N+](=O)[O-])c1C | 48 to 49
COc1cc(C2C3=C(COC3=O)Nc3c2cc(OC)c(OC)c3OC)ccc1O (stereo not given) | 290 to 291

— a melting point compilation (Tetko et al.; mined from patent text by program, amines drawn as free bases though some values may be those of a salt)
